Results taken from publication PMC8199245, “Serotonin Promotes Serum Albumin Interaction with the Monomeric Amyloid β Peptide” (International Journal of Molecular Sciences, 2021).
“Also recorded” adds a separate entry of the source.

What was measured:
[1] = biological target: T1, HSA–monomeric Aβ42 (recombinant human Aβ42) (Homo sapiens, UniProt P02768); parameters: method as in PMID 30685090; details: cited from earlier work
[2] = biological target: T2, HSA–monomeric Aβ40 (recombinant human Aβ40) (Homo sapiens, UniProt P02768); parameters: method as in PMID 30685090; details: cited from earlier work
HSA–monomeric Aβ [3] = details: cited from earlier work
Text: (§1) An alternative, less invasive approach to the lowering of the free Aβ level in the brain is a pharmacologically guided shift in the equilibrium between HSA and Aβ towards their complex. The latter possibility was recently confirmed by arachidonic/linoleic-aci ...

[4] = system: brain Aβ deposition in AD mouse models; details: dietary; cited from earlier work
Text: as §1

HSA [5] = assay: Dynamic light scattering of HSA; parameters: species or system human; details: 1 mM SRO, HSA 36 µM, 25 °C, pH 7.4
Experimental: The standard deviations are indicated.
The back-scattered light from a 4 mW He/Ne laser (632.8 nm) was collected at an angle of 173°. The acquisition time for a single autocorrelation function was 45 s. The resulting autocorrelation functions are averaged values from 20 measurements. The volume–size distributions were calculated using the following parameters: a refractive index of 1.330 and a viscosity value of 0.8882 cP.

[6] = physiological (endogenous), cited from earlier work
Experimental: (§2) The SRO concentration in plasma is 0.28–1.7 µM [40], but in the synaptic cleft it may reach 6 mM and 55 nM after SRO diffuses into the extracellular compartment.

[7] = system: Aβ level in interstitial brain fluid; details: direct infusion into the hippocampus, mouse model of AD; cited from earlier work
Experimental: as §2

[8] = biological target: T1, HSA–monomeric Aβ42 (recombinant human Aβ42); assay: SPR of HSA interaction with immobilized monomeric Aβ42, without/with SRO or TRP; details: SPR 25 °C; for Kd: KD (apparent, HSA–Aβ42), KD × 10^7, i.e. value × 10^−7 M; for Kd / ka (effective, HSA–Aβ42) / kd (effective, HSA–Aβ42): HSA 5–60 µM, mean ± SD; for ka (effective, HSA–Aβ42): ka × 10^−3, i.e. value × 10^3 M^−1s^−1; for kd (effective, HSA–Aβ42): kd × 10^4, i.e. value × 10^−4 s^−1
Experimental: (§3) The recombinant human Aβ40 or Aβ42 sample was immobilized on the surface of the SPR sensor chip by amine coupling, followed by removal from the surface of the non-covalently bound Aβ molecules by a 2% SDS water solution [12]. […] (5–60 µM) was used as an analyte.
(§4) Aβ40/Aβ42 was immobilized on the sensor chip’s surface by amine coupling.
(§5) Recombinant human Aβ40/Aβ42 samples were pretreated for SPR measurements mainly as described in [46]. The freeze-dried Aβ sample was dissolved in neat TFA at a concentration of 0.5–1 mg/mL. The solution was sonicated for 30 s. TFA was evaporated using Eppendorf Concentrator plus. The dried Aβ sample was dissolved in DMSO at a concentration of 2 mg/mL, and stored at −20 °C.
(§6) SPR measurements were performed at 25 °C using a Bio-Rad ProteOn™ XPR36 instrument mainly as previously described. Ligand (57 μg/mL recombinant human Aβ40/Aβ42 in 10 mM sodium acetate, pH 4.5 buffer) was immobilized on a ProteOn GLH sensor chip surface (up to 7000–9000 RUs) by amine coupling. The remaining activated amine groups on the chip surface were blocked by 1 M ethanolamine solution. The non-covalently bound Aβ40/Aβ42 molecules were washed from the chip surface with 2% SDS water solution until stabilization of the signal. […] The sensor chip surface was regenerated by passage of 10 mM EDTA pH 7.9 solution containing 2% SDS. […] The double-referenced SPR sensograms were globally fitted according to the one-site binding model using Bio-Rad ProteOn Manager™ v.3.1 software.

HSA–monomeric Aβ [9] = assay: SPR of HSA interaction with monomeric Aβ (isoform not given); format: binding, human
Aβ42 = system: Aβ42; parameters: method as in PMID 29131485; details: cited from earlier work
HSA [10] = assay: Glutaraldehyde crosslinking of HSA with SDS-PAGE; parameters: species or system human; details: HSA 36 µM, 37 °C; for effect on quaternary structure of HSA: 1 mM ligand, glutaraldehyde crosslinking, overall statements also rest on DLS
HSA [11] = system: HSA; parameters: method as in PMID 17191887; details: read-out: equilibrium dissociation constant (KD) for the HSA–SRO complex; cited from earlier work
[12] = biological target: T2, HSA–monomeric Aβ40 (recombinant human Aβ40); assay: SPR of HSA interaction with immobilized monomeric Aβ40, without/with SRO or TRP; details: SPR 25 °C; for Kd: KD (apparent, HSA–Aβ40), KD × 10^7, i.e. value × 10^−7 M; for Kd / ka (effective, HSA–Aβ40) / kd (effective, HSA–Aβ40): HSA 5–60 µM, mean ± SD; for ka (effective, HSA–Aβ40): ka × 10^−3, i.e. value × 10^3 M^−1s^−1; for kd (effective, HSA–Aβ40): kd × 10^4, i.e. value × 10^−4 s^−1
Experimental: as §3, §4, §5, §6

HSA [13] = details: cited from earlier work
[14] = system: HSA-induced suppression of Aβ fibrillation; parameters: method as in 2 sources, ref 5 = [5]; PMID 10347147; doi:10.1074/jbc.274.23.15990; 5. Bohrmann B. Tjernberg L. Kuner P. Poli S. Levet-Trafit B. Naslund J. Richards G. Huber W. Dobeli H. Nordstedt C. Endogenous proteins controlling amyloid beta-peptide polymerization. Possible implic ||| ref 14 = [14]; PMID 29409811; doi:10.1016/j.jmb.2018.01.008; 14. Bode D.C. Stanyon H.F. Hirani T. Baker M.D. Nield J. Viles J.H. Serum albumin’s protective inhibition of amyloid-β fiber formation is suppressed by cholesterol, fatty acids and warfarin J. Mol. Bi; details: cited from earlier work
[15] = 1 mM SRO, main cause of KD decrease

T1 sequence (P05067 672-713): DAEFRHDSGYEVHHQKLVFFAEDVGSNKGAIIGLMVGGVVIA
T1 sequence (P02768 25-609): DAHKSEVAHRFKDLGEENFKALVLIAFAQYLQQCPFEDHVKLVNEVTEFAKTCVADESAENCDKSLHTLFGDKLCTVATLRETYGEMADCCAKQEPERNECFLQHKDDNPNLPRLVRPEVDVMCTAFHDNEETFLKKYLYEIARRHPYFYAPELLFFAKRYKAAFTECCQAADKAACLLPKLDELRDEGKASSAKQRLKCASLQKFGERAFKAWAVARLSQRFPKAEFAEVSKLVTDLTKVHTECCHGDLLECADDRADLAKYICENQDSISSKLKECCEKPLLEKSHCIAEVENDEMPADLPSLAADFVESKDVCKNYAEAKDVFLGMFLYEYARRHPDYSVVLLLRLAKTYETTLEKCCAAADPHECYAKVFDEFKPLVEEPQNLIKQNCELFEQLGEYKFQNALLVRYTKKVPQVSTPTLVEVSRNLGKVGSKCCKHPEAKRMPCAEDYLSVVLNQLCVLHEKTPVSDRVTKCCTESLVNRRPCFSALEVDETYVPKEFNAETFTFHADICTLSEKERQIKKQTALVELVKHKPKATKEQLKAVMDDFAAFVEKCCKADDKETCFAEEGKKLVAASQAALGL
T2 sequence (P05067 672-711): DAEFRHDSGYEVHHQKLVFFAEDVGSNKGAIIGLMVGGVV
T2 sequence (P02768 25-609): as the sequence (P02768 25-609) above

Row | Structure (SMILES) | fold decrease in KD of HSA–monomeric Aβ42 [1] [fold] | fold decrease in KD of HSA–monomeric Aβ40 [2] [fold] | effect on HSA affinity to Aβ (HSA–monomeric Aβ [3]) | Kd ([8]; 10 µM HSA ligand, pH 7.4) [µM] | Kd ([8]; 1 mM HSA ligand, pH 7.4) [µM] | ka (effective, HSA–Aβ42) ([8]; 10 µM HSA ligand, pH 7.4) | ka (effective, HSA–Aβ42) ([8]; 100 µM HSA ligand, pH 7.4) | ka (effective, HSA–Aβ42) ([8]; 1 mM HSA ligand, pH 7.4) | kd (effective, HSA–Aβ42) ([8]; 10 µM HSA ligand, pH 7.4) | kd (effective, HSA–Aβ42) ([8]; 100 µM HSA ligand, pH 7.4) | effect on HSA's affinity to monomeric Aβ / activation of HSA–Aβ interaction (HSA–monomeric Aβ [9]; general statement, SPR) | effect on quaternary structure of HSA (HSA [10]) | Kd ([12]; 10 µM HSA ligand, pH 7.4) [µM] | Kd ([12]; 1 mM HSA ligand, pH 7.4) [µM] | ka (effective, HSA–Aβ40) ([12]; 10 µM HSA ligand, pH 7.4) | ka (effective, HSA–Aβ40) ([12]; 100 µM HSA ligand, pH 7.4) | ka (effective, HSA–Aβ40) ([12]; 1 mM HSA ligand, pH 7.4) | kd (effective, HSA–Aβ40) ([12]; 10 µM HSA ligand, pH 7.4) | kd (effective, HSA–Aβ40) ([12]; 100 µM HSA ligand, pH 7.4) | kd (effective, HSA–Aβ40) ([12]; 1 mM HSA ligand, pH 7.4) | also measured
1 | CCCCC/C=C\C/C=C\CCCCCCCC(=O)O [linoleic acid] | 3 | 3 | enhancement of HSA affinity to Aβ |  |  |  |  |  |  |  |  |  |  |  |  |  |  |  |  |  | effect on brain Aβ deposition [4]: reduces brain Aβ deposition
2 | NCCc1c[nH]c2ccc(O)cc12 [SRO, 5-hydroxytryptamine] |  |  |  | 0.04 ± 0.02 | 0.007 ± 0.0015 | 0.6 ± 0.4 × 10^−3, M^−1s^−1 | 0.9 ± 0.2 × 10^−3, M^−1s^−1 | 1.2 ± 0.2 × 10^−3, M^−1s^−1 | 0.20 ± 0.14 × 10^4, s^−1 | 0.08 ± 0.02 × 10^4, s^−1 | the most potent activator of HSA–Aβ interaction reported to date | more distinct changes in the quaternary structure of HSA, relative to the TRP-induced effects; also recorded: more marked changes in the quaternary structure of HSA | 0.04 ± 0.02 | 0.009 ± 0.005 | 0.7 ± 0.2 × 10^−3, M^−1s^−1 | 1.5 ± 1.2 × 10^−3, M^−1s^−1 | 1.0 ± 0.5 × 10^−3, M^−1s^−1 | 0.26 ± 0.03 × 10^4, s^−1 | 0.19 ± 0.12 × 10^4, s^−1 | 0.09 ± 0.05 × 10^4, s^−1 | accumulation of multimeric HSA forms (DLS), compared with TRP (HSA [5]): more prominent accumulation of its multimeric forms; SRO concentration after diffusion into the extracellular compartment ([6]; may reach): ≤ 55 nM; SRO concentration in the synaptic cleft ([6]; may reach): ≤ 6 mM; SRO concentration in plasma [6]: 0.28 to 1.7 µM; Aβ level in interstitial brain fluid [7]: decrease in the Aβ level in interstitial brain fluid; factor of decrease in apparent KD / increase in affinity of HSA–Aβ42 ([8]; 1 mM SRO vs no ligand, pH 7.4): 17 factor; effect on dissociation of HSA–Aβ42 complex [8, 15]: slowdown of the dissociation process; Kd ([8]; 100 µM HSA ligand, pH 7.4): 0.009 ± 0.004 µM; kd (effective, HSA–Aβ42) ([8]; 1 mM HSA ligand, pH 7.4): 0.086 ± 0.009 × 10^4, s^−1; effect on HSA's affinity to Aβ (HSA–monomeric Aβ [9]; 10 µM SRO, SPR 25 °C): absence of a marked influence; fold decrease in KD of HSA–Aβ (HSA–monomeric Aβ [9]; up to, vs no ligand): ≤ 17 fold; inhibition of Aβ42 fibrillation (Aβ42; 50–100 µM SRO): efficient inhibition of Aβ42 fibrillation; also recorded: potent inhibition of Aβ42 fibrillation; fold increase in content of HSA high-molecular-weight forms (at the expense of the monomer) (HSA [10]; 1 mM SRO, 0.02% glutaraldehyde, 1 h, pH 7.4): approximately 2 fold; Kd (HSA [11]): 1.6 µM; factor of decrease in apparent KD / increase in affinity of HSA–Aβ40 ([12]; 1 mM SRO vs no ligand, pH 7.4): 7 factor; effect on dissociation of HSA–Aβ40 complex [12, 15]: slowdown of the dissociation process; Kd ([12]; 100 µM HSA ligand, pH 7.4): 0.015 ± 0.013 µM
3 | CCCCC/C=C\C/C=C\C/C=C\C/C=C\CCCC(=O)O [arachidonic acid] | 3 | 3 | enhancement of HSA affinity to Aβ |  |  |  |  |  |  |  |  |  |  |  |  |  |  |  |  |  | 
4 | N[C@@H](Cc1c[nH]c2ccccc12)C(=O)O [TRP, L-tryptophan] |  |  |  | 0.06 ± 0.04 | 0.06 ± 0.03 | 0.8 ± 0.4 × 10^−3, M^−1s^−1 | 0.5 ± 0.3 × 10^−3, M^−1s^−1 | 0.29 ± 0.07 × 10^−3, M^−1s^−1 | 0.4 ± 0.2 × 10^4, s^−1 | 0.7 ± 0.6 × 10^4, s^−1 | does not affect HSA’s affinity to monomeric Aβ; also recorded: did not affect HSA’s effective affinity for Aβ; also recorded: inactive | did not affect the quaternary structure of HSA | 0.08 ± 0.04 | 0.07 ± 0.04 | 0.7 ± 0.2 × 10^−3, M^−1s^−1 | 0.47 ± 0.15 × 10^−3, M^−1s^−1 | 0.6 ± 0.2 × 10^−3, M^−1s^−1 | 0.49 ± 0.12 × 10^4, s^−1 | 0.53 ± 0.17 × 10^4, s^−1 | 0.4 ± 0.2 × 10^4, s^−1 | effect on kinetics of HSA–Aβ42 interaction ([8]; 1 mM TRP): slowdown of the association and dissociation processes; effect on HSA's apparent affinity to Aβ42 ([8]; 1 mM ligand): did not affect HSA’s apparent affinity; effect on kinetics of HSA–Aβ interaction (HSA–monomeric Aβ [9]; general statement, SPR): slowdown of the association and dissociation processes; also recorded: slowed their association and dissociation; inhibition of Aβ42 fibrillation compared with SRO (Aβ42): markedly less effective; also recorded: much less efficient inhibition of Aβ42 fibrillation; equilibrium association constant of TRP with HSA (HSA [13]): 27000 M⁻¹; effect on HSA's apparent affinity to Aβ40 ([12]; 1 mM ligand): did not affect HSA’s apparent affinity
5 | CC(=O)CC(c1ccccc1)c1c(O)c2ccccc2oc1=O (stereo not drawn) [warfarin] |  |  |  |  |  |  |  |  |  |  |  |  |  |  |  |  |  |  |  |  | effect on HSA-induced suppression of Aβ fibrillation [14]: prevent HSA-induced suppression of Aβ fibrillation
6 | CC(C)CCC[C@@H](C)[C@H]1CC[C@H]2[C@@H]3CC=C4C[C@@H](O)CC[C@]4(C)[C@H]3CC[C@]12C [cholesterol] |  |  |  |  |  |  |  |  |  |  |  |  |  |  |  |  |  |  |  |  | effect on HSA-induced suppression of Aβ fibrillation [14]: prevent HSA-induced suppression of Aβ fibrillation
